Patent publication US20220370481A1, “VENETOCLAX DOSING REGIMENS FOR USE IN TREATING MYELODYSPLASTIC SYNDROMES IN COMBINATION WITH A CYP3A INHIBITOR AND AZACITIDINE” (priority 2021, published 2022)
Where two headings read alike, the source gives them in different places.

Tested on: adults with previously untreated higher-risk MDS
Details: with azacitidine
Procedure: A multicenter, non-randomized Phase 1b study in adults with previously untreated higher-risk MDS, defined as IPSS risk categories of Int-2 or High (IPSS overall score ≥1.5) was initiated. The original protocol randomized patients into 1 of 3 treatment groups: venetoclax 800 mg + azacitidine, venetoclax 400 mg + azacitidine, and azacitidine monotherapy. Under the original protocol, venetoclax was administered on Days 1 through 28 of each 28-day-cycle and dosing was initiated according to a ramp-up dosing schedule in Cycle 1.
Subjects 18 years or older diagnosed with treatment-naïve IPSS intermediate-2 or high-risk myelodysplastic syndromes with ECOG ≤2 were enrolled. For this study, inclusion criteria included the following: • 1. Subject must be ≥18 years of age. • 2. Subject must have documented diagnosis of previously untreated de novo MDS with: • a. International Prognostic Scoring System (IPSS) risk categories Intermediate-2 or High (i.e., minimum IPSS score of 1.5) OR Revised IPSS (IPSS-R) categories Intermediate, High or Very High (score of >3); and • b. Presence of <20% bone marrow blasts per bone marrow biopsy/aspirate. • 3. Subject must have an Eastern Cooperative Oncology Group (ECOG) performance score of ≤2.
Azacitidine 75 mg/m^2 (intravenous or subcutaneous daily) was administered for 7 days and venetoclax was administered at 400 mg for 14 days in each 28 day cycle. In both cohorts, dose modification during Cycle 1 was not recommended. Dose modifications in subsequent cycles were prescribed for adverse events. […] In subsequent cycles, venetoclax duration could be shortened to 9 days of each cycle. In Safety Expansion Cohort 2 (SE2), dose modification guidelines recommended stepwise reductions, first in azacitidine dose (first to 50 mg/m^2, then 36 mg/m^2) and subsequently in venetoclax duration to 7 days of each cycle (venetoclax 400 mg) as shown in Table 4. The impact of each dose modification strategy on safety and efficacy in SE1 versus SE2 was compared. Worsening of treatment-emergent adverse events grades from baseline was analyzed by cycle. Responses were evaluated using IWG 2006 criteria. Analyses included all subject who received ≥1 dose of study drug.
After a previous interruption of treatment, delay starting the next cycle, onset of adverse events associated with hematological toxicity, significant reduction of neutrophils, or significant reduction of platelets, a treatment dose reduction may be indicated. […] Venetoclax and azacitidine were resumed on the same day after any delays or interruptions in treatment.

`CC1(C)CCC(CN2CCN(c3ccc(C(=O)NS(=O)(=O)c4ccc(NCC5CCOCC5)c([N+](=O)[O-])c4)c(Oc4cnc5[nH]ccc5c4)c3)CC2)=C(c2ccc(Cl)cc2)C1` [Venetoclax, 4-(4-{[2-(4-chlorophenyl)-4,4-dimethylcyclohex-1-en-1-yl]methyl}piperazin-1-yl)-N-({3nitro-4-[(tetrahydro-2H-pyran-4-ylmethyl)amino]phenyl}sulfonyl)-2-(1H-pyrrolo[2,3-b]pyridin5-yloxy)benzamide] was tested, and the “Venetoclax dose delay by end of each cycle” value (Cycle 2, SE1, n = 22) was 14 (63) n (%), the “Venetoclax dose delay by end of each cycle, Median # days (range)” value (“Venetoclax dose delay by end … (range)” for short) (Cycle 2, SE1, n = 22) was 7.5 (1-21) days and the “Venetoclax dose delay by end of each cycle” value (Cycle 2, SE2, n = 21) was 13 (62) n (%). The “Venetoclax dose delay by end … (range)” value (Cycle 2, SE2, n = 21) was 8 (5-21) days, the “Venetoclax dose delay by end of each cycle” value (Cycle 3, SE1, n = 22) was 12 (55) n (%) and the “Venetoclax dose delay by end … (range)” value (Cycle 3, SE1, n = 22) was 14 (3-28) days. The “Venetoclax dose delay by end of each cycle” value (Cycle 3, SE2, n = 21) was 10 (48) n (%), the “Venetoclax dose delay by end … (range)” value (Cycle 3, SE2, n = 21) was 8.5 (1-48) days and the “Venetoclax dose delay by end of each cycle” value (Cycle 4, SE1, n = 22) was 8 (36) n (%). The “Venetoclax dose delay by end … (range)” value (Cycle 4, SE1, n = 22) was 17 (1-54) days, the “Venetoclax dose delay by end of each cycle” value (Cycle 4, SE2, n = 21) was 6 (28) n (%) and the “Venetoclax dose delay by end … (range)” value (Cycle 4, SE2, n = 21) was 9 (6-43) days. The “Venetoclax dose delay by end of each cycle” value (Cycle 5, SE1, n = 22) was 7 (32) n (%), the “Venetoclax dose delay by end … (range)” value (Cycle 5, SE1, n = 22) was 14 (3-28) days and the “Venetoclax dose delay by end of each cycle” value (Cycle 5, SE2, n = 21) was 9 (43) n (%). The “Venetoclax dose delay by end … (range)” value (Cycle 5, SE2, n = 21) was 14 (1-97) days, the “Venetoclax dose delay by end of each cycle” value (Cycle 6, SE1, n = 22) was 7 (32) n (%) and the “Venetoclax dose delay by end … (range)” value (Cycle 6, SE1, n = 22) was 7 (1-21) days. The “Venetoclax dose delay by end of each cycle” value (Cycle 6, SE2, n = 21) was 5 (24) n (%), the “Venetoclax dose delay by end … (range)” value (Cycle 6, SE2, n = 21) was 14 (6-91) days and the “# of reductions in Venetoclax duration (due to hematologic toxicity)” value (SE1, n = 22) was 3 (14). The “Patients with ≥1 Ven dose amount reduction” value (SE1, n = 22) was 10 (45) n (%), the “Venetoclax: Median days to duration reduction” value (SE1, n = 22) was 52 days and the “# of reductions in Venetoclax duration (due to hematologic toxicity)” value (SE2, n = 21) was 0. The “Patients with ≥1 Ven dose amount reduction” value (SE2, n = 21) was 10 (48) n (%).
